Reference: patent publication US9079915B2, “Thienyl- and furanyl-isoquinolinones and methods for using them” (priority 2008, dated 2015)

Tests used:
Format in all cases: in vivo
[1] = test system: Wistar rats, 90 min tMCAO; test: Transient middle cerebral artery occlusion (tMCAO) model; conditions: tMCAO rat
Procedure: (§1) Adult male Wistar rats (Charles River, Wilmington, Mass.) 290-310 g were used in all studies. Animal procedures were approved by the Institutional Animal Care and Use Committee and conducted in accordance with the guidelines of the National Institutes of Health.
(§2) Rats were anesthetized with 3% isoflurane in a mixture of 70% nitrous oxide and 30% oxygen through a nose cone. Core body temperature was maintained at 37° C. throughout the surgery using a heating lamp. tMCAO was induced for 90 min using the intraluminal suture method (Longa et al., Reversible middle cerebral artery occlusion without craniectomy in rats. Stroke 20:84-91, 1989). Briefly, an 18 mm length of 4-0 monofilament nylon suture coated with poly-L-lysine (Belayev et al., 1996) with a flame-rounded tip was inserted into the external carotid artery and advanced into the internal carotid to occlude the origin of the MCA Ninety minutes later rats were re-anesthetized, the suture withdrawn and the incision closed. Drug (test compound) or vehicle, were administered into the tail vein as a 3 IV bolus doses 3 hours apart in a volume of 2 ml/kg starting at 4 hours post-induction of stroke at various time intervals after the induction of stroke. Animals were tested for motor deficits using a scoring system described by (Bederson et al., 1986). A Bederson score of 5 (maximum) at 90 minutes post-induction of tMCAO was a criterion for inclusion in the trial. Motor deficits and body weight were monitored at 24 and 48 hours post-tMCAO. Neurological deficits were assessed by blinded operators. Rats were sacrificed at 48 hours post-tMCAO. Sham-operated controls were subjected to identical surgical procedures but without advancement of the monofilament into the MCA branching point. The same model was also used, but in addition to occlusion of middle cerebral arteries, both carotid arteries were occluded (CCAO) for the same time 90 minutes. This was Severe Transient MCAO.
(§3) After sacrifice, brains were extracted and 2 mm coronal sections were cut starting at 4 mm from the frontal pole using a rat brain matrix (Stoeling, Wood Dale, Ill.). Sections were stained by immersion in a 2% solution of 2,3,5-triphenyl tetrazolium chloride at 37° C. for 10 minutes and then in 10% neutral formalin for preservation. Digitized images of sections were collected using the MCID image analysis system (Imaging Research, Inc. Ontario, Canada), and the area of infarct determined for each slice. Total infarct volume was calculated by multiplying a sum of areas by the distance between them in mm.
Values are expressed as means±SEM for the indicated number of animals or number of in vitro experiments. The statistical significance of differences between means was calculated by one-way ANOVA with post-hoc Fisher test or Dunnett's comparison to control or with Student's t-test analysis, as appropriate. Linear mix model was used to assess differences between treatment groups during 3-week neurological function recovery testing post-pMCAO. Statistical significance was assumed at p<0.05.
The first study was conducted using a transient middle cerebral artery occlusion (tMCAO) model. Rats were subjected to 90 minutes tMCAO and compound (2-dimethylaminomethyl-9-hydroxythieno[2,3-c]isoquinolin-5(4H)-one) was administered using 3 bolus injections at 4, 7 and 10 hours post-ischemia and an intraperitoneal (IP) route of administration. The three doses evaluated were 0.1, 1 and 10 mg/kg. Dosing was initiated at 4 hours post-MCAO because it is a clinically relevant therapeutic time window to treatment. Infarct volumes and neurological testing were carried out at 48 hours post-ischemia. This model produces an extensive unilateral lesion that involves the motor cortex and striatum. It is used to assess acute neuroprotection and neurological function in a reperfusion model of stroke. […]

[2] = test system: Wistar rats, severe permanent MCAO; test: Severe permanent MCAO model (intraluminal suture not removed); conditions: severe permanent MCAO rat, 3×1 mg/kg IP from 30 minutes post-ischemia, 24 hours
[3] = test system: Wistar rats, severe tMCAO; test: Severe tMCAO model (MCA and both carotid arteries temporarily occluded); conditions: severe tMCAO rat, 48 hours
Procedure: as §1
as §2, with “Sham-operated controls were subjected to identical surgical procedures but without advancement of the monofilament into the MCA branching point. The same model was also used, but in addition to occlusion of middle cerebral arteries, both carotid arteries were occluded (CCAO) for the same time 90 minutes. This was Severe Transient MCAO.” left out
as §3, with “Sections were stained by immersion in a 2% solution of 2,3,5-triphenyl tetrazolium chloride at 37° C. for 10 minutes and then in 10% neutral formalin for preservation.” left out
Values are expressed as means±SEM for the indicated number of animals or number of in vitro experiments. The statistical significance of differences between means was calculated by one-way ANOVA with post-hoc Fisher test or Dunnett's comparison to control or with Student's t-test analysis, as appropriate. […]
In a third assay, a severe tMCAO model was used (where both MCAO and carotid arteries were temporarily occluded) to obtain an injury. […] Doses of 1 or 10 mg/kg of 2-dimethylaminomethyl-9-hydroxythieno[2,3-c]isoquinolin-5(4H)-one were given at 4, 7 and 10 hours and animals were evaluated for infarct size, weight loss and neurological score at 48 hours post-MCAO.

Wistar rats, pMCAO = test: Less severe permanent MCAO (pMCAO, distal MCA occlusion) model; conditions: pMCAO rat
Procedure: Adult male Wistar rats (Charles River, Wilmington, Mass.) 290-310 g were used in all studies. Animal procedures were approved by the Institutional Animal Care and Use Committee and conducted in accordance with the guidelines of the National Institutes of Health. Craniotomy was performed under isoflurane anesthesia. This was followed by electrocauterization of the distal portion of the MCA and a 90 minute ligation of both carotid arteries to limit collateral circulation during the initial stage of stroke, as described by Chen, et al. (Chen et al., 1986). Compound or vehicle, were administered as infusion starting at 4 hours post-induction of stroke and lasting 24 hours. Animals were maintained for long-term functional recovery assessment. Sensorimotor and reflex deficits were evaluated at 3-day intervals for 90 days according to (Bederson et al., 1986; De Ryck et al., 1989). Each trial included: postural test, two visual and two tactile forelimb placement tests and a hind limb placement test. Performance at each test was scored from 0 (no deficit) to 2 (severe deficit) for a maximum combined score of 12. Neurological scoring was performed in a blinded fashion. Values are expressed as means±SEM for the indicated number of animals or number of in vitro experiments. The statistical significance of differences between means was calculated by one-way ANOVA with post-hoc Fisher test or Dunnett's comparison to control or with Student's t-test analysis, as appropriate. Linear mix model was used to assess differences between treatment groups during 3-week neurological function recovery testing post-pMCAO. Statistical significance was assumed at p<0.05. A further efficacy study was conducted and employed a less severe permanent MCAO (pMCAO) model. This model, which utilized an occlusion of the distal portion of the middle cerebral artery, produced a much smaller injury contained within the sensorimotor cortex of the animal. The injury sustained in this model was less extensive but still involves the motor cortex and the rats can be assessed over the long-term (3 weeks to 3 months post-ischemia) for neurological function. In a first study with this model, rats were administered an IV bolus dose of 1, 3 or 10 mg/kg initiated at 4 hours post-ischemia and followed by 2 subsequent and equivalent doses at 7 and 10 hours. In a second study, rats were given a single IV bolus followed by a 24 hr IV infusion. Neurological function was tested every 2-3 days for 3 weeks post-MCAO.

[4] = 11.7 mg/kg IV bolus then 0.9 mg/hr infusion for 24 hours

Compound: CN(C)Cc1cc2c([nH]c(=O)c3cccc(O)c32)s1 [2-dimethylaminomethyl-9-hydroxythieno[2,3-c]isoquinolin-5(4H)-one]
- neurological deficits ([1]; 1 mg/kg IP ×3, 48 hr post-MCAO): significantly reduced neurological deficits
- effect on neurological deficits, weight loss and infarct volume ([1]; 3.9 mg/kg IV bolus then 0.3 mg/hr infusion for 24 hours (lower dose)): No effect was seen
- ischemic-induced weight loss [1, 4]: significant reduction in ischemic-induced weight loss
- reduction in infarct volume (small but insignificant) [1, 4]: 10%
- neurological deficits ([1]; 11.7 mg/kg IV bolus then 0.9 mg/hr infusion for 24 hours from 4 hours post-tMCAO, 48 hours): significant reduction in neurological deficits
- reduction of infarct volume vs vehicle ([1]; 3×0.1 mg/kg IP at 4, 7 and 10 hours post-ischemia, 48 hours): 20%
- reduction of infarct volume vs vehicle ([1]; 3×1 mg/kg IP at 4, 7 and 10 hours post-ischemia, 48 hours): 55%
- reduction of infarct volume vs vehicle ([1]; 3×10 mg/kg IP at 4, 7 and 10 hours post-ischemia, 48 hours): 66%
- infarct volume smaller than vehicle [2]: 42%
- infarct volume smaller than vehicle ([3]; 3 times 1 mg/kg IV bolus at 4, 7 and 10 hours): 22%
- infarct volume smaller than vehicle ([3]; 3 times 10 mg/kg IV bolus at 4, 7 and 10 hours): 19%
- ischemia-induced weight loss ([3]; 3 times 1 or 10 mg/kg IV bolus): reduction of ischemia-induced weight loss
- neurological deficits ([3]; 3 times 1 or 10 mg/kg IV bolus): reduction of neurological deficits
- time for which neurological recovery was maintained following ischemia (Wistar rats, pMCAO; 3.5 mg/kg IV bolus plus 2.5 mg/hr IV infusion for 24 hours): at least 3 months
- neurological deficits (Wistar rats, pMCAO; 3.5 mg/kg IV bolus plus 2.5 mg/hr IV infusion for 24 hours, 39 days post-ischemia): significantly reduced neurological deficits
- neurological function, 10 mg/kg dose (Wistar rats, pMCAO; multiple IV bolus 10 mg/kg, 21 days post-ischemia): approached efficacy
- neurological function (Wistar rats, pMCAO; multiple IV bolus 1, 3 or 10 mg/kg at 4, 7 and 10 hours, 21 days post-ischemia): no significant improvement in neurological function
